Experimental data published in US20220267341A1, “SOLID FORMS OF TERT-BUTYL (S)-2((2S,3R)-1-AMINO-3-HYDROXY-1-OXOBU TAN-2-YL)-1-OXO-2, 5-DIAZASPIRO [3.4] OCTAN E-5-CARBOXYLATE AND METHODS OF PREPARING THEM” (NAUREX INC., priority 2019, published 2022).

What was measured:
Assay type in all cases: physicochemical
[1] = Competitive slurry in mixtures of water and isopropanol; conditions: 25° C.
Description: Competitive slurry in mixtures of water and isopropanol indicates the phase boundary between the crystalline Form I and crystalline Form II is between water activity of 0.66-0.78 at 25° C. At water activity above 0.78, crystalline Form II is the stable form, whereas at water activity below 0.66, crystalline Form I is the stable form

[2] = DVS water vapor desorption analysis; conditions: 25° C.
Description: DVS: The following method was used for the water vapor desorption analysis using a DVS Advantage (Surface Measurement Systems). • Temperature: 25° C. • RH program: 95, 90, 80, 70, 60, 50, 40, 35, 30, 20, 10, 0%. • Dm/dt (%/min.): 0.0005 • Minimum equilibrium time: 120 minutes • Maximum equilibrium time: 2000 minutes
The solid was also subjected to DVS measurement and lost about 11% water at 0% RH.

[3] = Thermogravimetric analysis (TGA); conditions: heated from room temperature at 10° C./minute; consistent with a dihydrate
Description: TGA: Approximately 5-10 mg sample was heated from room temperature to 250° C. at 10° C./minute.
(§1) In another experiment, about 2 g of crystalline Form I of Compound A from Example 1 was weighed into a 20 mL scintillation vial and 4 mL of Milli-Q water was added into the vial. The resulting suspension was stirred with a spatula and left at room temperature for one day. The residual was then filtered with vacuum and dried in a vacuum oven at room temperature for about 20 hours. XRPD was taken after drying and Form II was confirmed since it was essentially the same as FIG. 3, top panel. […] The dried sample was then dehydrated in a TGA pan at 80° C. (ramp from room temperature to 80° C. at 10° C./min and then isothermal for 2 min).

[4] = DSC thermogram (dehydration event); conditions: 20 to 180° C. at 10° C./min, pin-hole lid
Description: DSC: DSC thermograms were obtained using a TA Instruments DSC Q2000. Approximately 1-2 mg of sample was weighed into a Tzero aluminum pan and hermetically sealed with a Tzero hermetic lid. For crystalline Form II samples, the lid was punched with a pin-hole. • DSC: Sample was scanned from 20 to 180° C. at 10° C./min.
as §1

[5] = Dehydration in a TGA pan at 80° C., form checked by XRPD and DSC; conditions: ramp to 80° C. at 10° C./min then isothermal for 2 min
Description: as §1

## C[C@@H](O)[C@@H](C(N)=O)N1C[C@@]2(CCCN2C(=O)OC(C)(C)C)C1=O [crystalline Form I of Compound A, tert-butyl (S)-2-((2S,3R)-1-amino-3-hydroxy-1-oxobutan-2-yl)-1-oxo-2,5-diazaspiro[3.4]octane-5-carboxylate]
[1]
  water activity at which the form is the stable form: below 0.66

## C[C@@H](O)[C@@H](C(N)=O)N1C[C@@]2(CCCN2C(=O)OC(C)(C)C)C1=O [crystalline Form II of Compound A, tert-butyl (S)-2-((2S,3R)-1-amino-3-hydroxy-1-oxobutan-2-yl)-1-oxo-2,5-diazaspiro[3.4]octane-5-carboxylate dihydrate]
[2]; 0% RH
  water lost in DVS: about 11%
[2]; at or above 20% RH
  water loss in DVS at or above 20% RH: did not lose water
[3]
  TGA weight loss: 9.6%
[4]
  possible dehydration event in DSC: about 82 °C
[5]
  solid form after dehydration: mostly crystalline Form I with residual amorphous content and very small amount of crystalline Form II
[1]; dihydrate
  water activity at which the form is the stable form: above 0.78
